# Source: patent US5968980A, “1,3-dialkylurea derivative” (Santen Pharmaceutical Co., Ltd., priority 1994, dated 1999)
# Molecular target: T1, endopeptidase 24.11 (Rattus norvegicus, UniProt P07861)
# T1 construct: A kidney was excised from a Wistar rat; from tissue; host or cells: Wistar rat kidney, crude membrane pellet suspended in HEPES buffer
# T1 sequence (P07861 1-750): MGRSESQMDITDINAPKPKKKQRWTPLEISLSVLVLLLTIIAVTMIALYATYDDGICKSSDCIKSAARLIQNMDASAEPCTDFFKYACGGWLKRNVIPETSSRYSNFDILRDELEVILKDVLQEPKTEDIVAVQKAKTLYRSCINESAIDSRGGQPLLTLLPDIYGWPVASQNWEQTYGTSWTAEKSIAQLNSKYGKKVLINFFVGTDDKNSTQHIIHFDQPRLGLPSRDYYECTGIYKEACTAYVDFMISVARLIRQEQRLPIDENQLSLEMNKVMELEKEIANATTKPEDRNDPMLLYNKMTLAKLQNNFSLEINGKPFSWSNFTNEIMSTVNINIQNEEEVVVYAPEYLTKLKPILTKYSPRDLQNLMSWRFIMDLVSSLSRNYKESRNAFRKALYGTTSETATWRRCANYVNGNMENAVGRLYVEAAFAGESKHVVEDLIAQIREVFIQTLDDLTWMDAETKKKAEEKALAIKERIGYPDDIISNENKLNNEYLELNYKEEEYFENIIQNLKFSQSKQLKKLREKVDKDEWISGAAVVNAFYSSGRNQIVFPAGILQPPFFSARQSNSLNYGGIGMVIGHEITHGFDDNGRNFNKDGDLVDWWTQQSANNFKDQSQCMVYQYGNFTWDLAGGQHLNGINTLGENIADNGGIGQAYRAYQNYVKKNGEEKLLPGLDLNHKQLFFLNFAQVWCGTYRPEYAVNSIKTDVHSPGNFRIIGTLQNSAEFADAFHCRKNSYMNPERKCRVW
# Assay: inhibition of endopeptidase 24.11 activity (DAGNPG cleavage, fluorescence, rat kidney enzyme preparation)
# Assay type: biochemical
# Conditions: DAGNPG 50 μM, 37° C., 30 minutes, pH 7.4, rat kidney enzyme preparation; read-out: IC50 (concentration required to inhibit endopeptidase 24.11 by 50%)
# From the text: As a method for measuring endopeptidase 24.11 activity, Florentin et al. had reported a method for measuring the enzyme activity by a degree of cleavage of a peptide bond between glycine and p-nitrophenylalanine using N-dansyl-D-alanyl-glycyl-p-nitrophenylalanyl-glycine (DAGNPG) as a substrate (Anal. Biochem., 141, 62-69 (1984)). An effect of the present compounds on endopeptidase 24.11 was examined according to the method described in the literature.
# An enzyme preparation used in this pharmacological test was prepared by extracting from a rat kidney by the following method according to the method of Malfloy et al. (J. Biol. Chem., 259, 14365-14370 (1984)).
# A kidney was excised from a Wistar rat. The kidney was homogenized in Tris-hydrochloric acid buffer (5 mM, pH 7.4, containing 125 mM D-mannitol and 12 mM magnesium chloride). The homogenate was centrifuged at low speed (1,000×g) to give a supernatant. The supernatant was ultracentrifuged ([…]) for 120 minutes. The resulting pellet was suspended in Tris-hydrochloric acid buffer (2.5 mM, pH 7.4, containing 62.5 mM D-mannitol and 6 mM magnesium chloride). The suspension was centrifuged at low speed and then ultracentrifuged again. The resulting pellet was suspended in HEPES buffer (5 mM, pH 7.4) to give the enzyme preparation.
# In order to examine the effect of the present compounds on the enzyme preparation, reactions were performed under the following condition using mixed solutions consisting of the composition shown in Table 1.
# Enzyme preparation 0.3-0.5 μg protein
# The above-mentioned solution (150 μl) was incubated at 37° C. for 30 minutes and then boiled at 100° C. for five minutes. To the solution was added 1.35 ml of Tris-hydrochloric acid buffer (50 mM, pH 7.4). The mixture was centrifuged at moderate speed (5,000×g) for five minutes to give a supernatant. Fluorescence intensity of the supernatant (excitation at 342 nm of wave length and emission at 562 nm) was measured.
# The degree of the inhibitory effect of each test compound on the enzyme preparation is expressed by the inhibition rate calculated by the following equation. [formula]
# A: fluorescence intensity of the sample in the absence of the test compound
# B: fluorescence intensity of the sample in the presence of the test compound
row,Compound,IC50 [nM]
1,"CC(C)CN(CC(CCc1ccccc1)C(=O)O)C(=O)N[C@@H](Cc1ccc(-c2ccccc2)cc1)C(=O)O (mixture of isomers) [Compound No. 5-6, (2S)-3-(4-Biphenylyl)-2-[3-[(2RS)-2-carboxy-4-phenylbutyl]-3-isobutylureido]propionic acid]",0.55
2,"CC(C)CCC(CN(CC(C)C)C(=O)N[C@@H](Cc1ccc(-c2ccccc2)cc1)C(=O)O)C(=O)O (mixture of isomers) [Compound No. 7-3, (2S)-3-(4-Biphenylyl)-2-[3-[(2RS)-2-carboxy-5-methylhexyl]-3-isobutylureido]propionic acid]",4
3,"CC(C)CN(CC(CCc1ccccc1)C(=O)O)C(=O)N[C@@H](Cc1ccc2ccccc2c1)C(=O)O (mixture of isomers) [Compound No. 7-6, (2S)-2-[3-[(2RS)-2-Carboxy-4-phenylbutyl]-3-isobutylureido]-3-(2-naphthyl)propionic acid]",3.1
4,"CC(C)CN(CC(OCc1ccccc1)C(=O)O)C(=O)N[C@@H](Cc1ccc(-c2ccccc2)cc1)C(=O)O (single isomer, unassigned) [Compound No. 8-1, (2S)-2-[3-[(2S or 2R)-2-Benzyloxy-2-carboxyethyl]-3-isobutylureido]-3-(4-biphenylyl)propionic acid]",0.93
5,"CC(C)CN(CC(CCc1ccccc1)C(=O)O)C(=O)N[C@@H](Cc1ccc(-c2ccccc2)cc1)C(=O)O (single isomer, unassigned) [Compound No. 9-1, (2S)-3-(4-Biphenylyl)-2-[3-[(2S or 2R)-2-carboxy-4-phenylbutyl]-3-isobutylureido]propionic acid]",0.58
6,"CC(C)CN(CC(CCc1ccccc1)C(=O)NO)C(=O)N[C@@H](Cc1ccc(-c2ccccc2)cc1)C(=O)O (single isomer, unassigned) [Compound No. 10-1, (2S)-3-(4-Biphenylyl)-2-[3-[(2S or 2R)-2-hydroxycarbamoyl-4-phenylbutyl]-3-isobutylureido]propionic acid]",2.1
7,"CC(C)CN(CCC(=O)O)C(=O)N[C@@H](Cc1ccc(-c2ccccc2)cc1)C(=O)O [Compound No. 5-1, (2S)-3-(4-Biphenylyl)-2-[3-(2-carboxyethyl)-3-isobutylureido]propionic acid]",1.3
8,"CC(C)CN(CCC(=O)O)C(=O)N[C@@H](Cc1ccc2ccccc2c1)C(=O)O [Compound No. 5-21, (2S)-2-[3-(2-Carboxyethyl)-3-isobutylureido]-3-(2-naphthyl)propionic acid]",9.3
